{"source": "patent EP3134439B1", "about": "“ANTI-PSYK ANTIBODY MOLECULES AND USE OF SAME FOR SYK-TARGETED THERAPY” (Millennium Pharmaceuticals, Inc., priority 2014, dated 2015)", "key": {"VEGFR": {"target": "VEGFR", "assay": "VEGFR enzyme inhibition", "type": "biochemical"}, "DLBCL cell lines": {"test_system": "DLBCL cell lines", "assay": "Inhibition of cellular proliferation", "type": "cell-based", "settings": "subset of relevant models"}, "[1]": {"test_system": "PHTX-95L primary DLBCL tumor xenografts", "assay": "Anti-tumor activity, PHTX-95L xenograft model", "type": "in vivo, SCID mice", "text": "(§1) Mean tumor volumes (mm^3) ± SEM (N=8/group) are shown where treatment was initiated when mean tumor volume was approximately 200 mm3."}, "[2]": {"test_system": "OCI-LY10 ABC DLBCL xenografts", "assay": "Anti-tumor activity, OCI-LY10 xenograft model", "type": "in vivo, SCID mice", "text": "as §1"}, "HBL-1 (ABC)": {"test_system": "HBL-1 (ABC)", "assay": "Anti-tumor activity, HBL-1 xenograft model", "type": "in vivo"}, "TMD8 (ABC)": {"test_system": "TMD8 (ABC)", "assay": "Anti-tumor activity, TMD8 xenograft model", "type": "in vivo", "settings": "60 mg/kg; TGI calculated on Day 14"}, "WSU": {"test_system": "WSU", "assay": "Anti-tumor activity, WSU xenograft model", "type": "in vivo"}, "[3]": {"test_system": "OCI-LY19 GCB DLBCL xenografts", "assay": "Anti-tumor activity, OCI-LY19 xenograft model", "type": "in vivo, SCID mice", "text": "as §1"}, "[4]": {"settings": "60 mg/kg orally once daily for 21 days"}, "[5]": {"settings": "120 mg/kg orally once daily for 21 days"}, "[6]": {"settings": "daily oral administration of 60 mg/kg"}}, "note": "Marks after values point to notes of the source that are not given here.", "data": [{"molecule": "Cn1cc(-c2nc(N[C@@H]3CCCC[C@@H]3N)c(F)c3c2C(=O)NC3)cn1", "note": "[Compound A, 6-((1R,2S)-2-Aminocyclohexylamino)-7-fluoro-4-(1-methyl-1H-pyrazol-4-yl)-1H-pyrrolo[3,4-c]pyridin-3(2H)-one]", "values": [{"measurement": "IC50", "setting": "VEGFR", "value": 140, "unit": "nM"}, {"measurement": "EC50", "setting": "DLBCL cell lines", "value": "25 to 400", "unit": "nM"}, {"measurement": "TGI", "setting": "[1]; [4]", "value": 56, "unit": "%"}, {"measurement": "TGI", "setting": "[1]; [5]", "value": 70, "unit": "%"}, {"measurement": "TGI", "setting": "[1]; daily oral administration, 120 mg/kg", "value": 70, "unit": "%"}, {"measurement": "TGI", "setting": "[2]; [4]", "value": 50, "unit": "%"}, {"measurement": "TGI", "setting": "[2]; [5]", "value": 59, "unit": "%"}, {"measurement": "TGI", "setting": "[2]; [6]", "value": 50, "unit": "%"}, {"measurement": "TGI", "setting": "HBL-1 (ABC); 60 mg/kg", "value": 32, "unit": "%"}, {"measurement": "TGI", "setting": "HBL-1 (ABC); 120 mg/kg", "value": 36, "unit": "%"}, {"measurement": "TGI", "setting": "TMD8 (ABC)", "value": 45, "unit": "%*"}, {"measurement": "TGI", "setting": "WSU; 60 mg/kg", "value": 52, "unit": "%"}, {"measurement": "TGI", "setting": "WSU; [6]", "value": "approximately 50%"}, {"measurement": "TGI", "setting": "[3]; 60 mg/kg orally once daily for 14 days, TGI calculated on Day 16", "value": 33, "unit": "%**"}, {"measurement": "TGI", "setting": "[3]; [6]", "value": 37, "unit": "%"}]}]}
